Results reported in patent publication US20120083476A1, “HETEROARYL-SUBSTITUTED SPIROCYCLIC DIAMINE UREA MODULATORS OF FATTY ACID AMIDE HYDROLASE” (Janssen Pharmaceutica NV, priority 2009, published 2012).
Counter-ions that a name gives are not always drawn.

Each molecule was assayed against T1, FAAH (Homo sapiens, UniProt O00519) (assay: Assay Method 1: human FAAH assay (3H-anandamide hydrolysis in cell homogenate)). Details: read-out: Assay 1 IC50.
T1 sequence (O00519 1-579): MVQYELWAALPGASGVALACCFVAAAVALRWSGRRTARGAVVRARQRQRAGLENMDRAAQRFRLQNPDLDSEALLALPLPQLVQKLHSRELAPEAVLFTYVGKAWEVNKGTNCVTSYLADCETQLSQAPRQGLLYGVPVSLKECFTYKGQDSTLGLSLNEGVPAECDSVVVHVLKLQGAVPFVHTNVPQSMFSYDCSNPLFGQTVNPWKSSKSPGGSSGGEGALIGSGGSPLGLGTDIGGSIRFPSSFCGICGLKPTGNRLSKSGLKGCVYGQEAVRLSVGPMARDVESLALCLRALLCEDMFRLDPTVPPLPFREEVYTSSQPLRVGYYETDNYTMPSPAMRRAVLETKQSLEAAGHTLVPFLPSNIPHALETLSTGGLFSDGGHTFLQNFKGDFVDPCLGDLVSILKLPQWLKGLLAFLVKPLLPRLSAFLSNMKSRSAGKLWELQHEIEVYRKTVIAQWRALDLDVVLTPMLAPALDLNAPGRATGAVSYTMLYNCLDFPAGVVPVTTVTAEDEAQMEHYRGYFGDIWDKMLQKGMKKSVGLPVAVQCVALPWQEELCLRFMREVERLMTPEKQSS
Assay type: biochemical
Set-up: expressed in transfected cells; host or cells: SK-N-MC cells stably transfected with human FAAH cDNA (G418 selection); alternatively T84 cell pellets
Protocol: A. Transfection of Cells with Human FAAH
A 10-cm tissue culture dish with a confluent monolayer of SK-N-MC cells was split 2 days (d) prior to transfection. Using sterile technique, the media was removed and the cells were detached from the dish by the addition of trypsin. One fifth of the cells were then placed onto a new 10-cm dish. Cells were grown in a 37° C. incubator with 5% CO2 in Minimal Essential Media Eagle with 10% Fetal Bovine Serum. After 2 d, cells were approximately 80% confluent. These cells were removed from the dish with trypsin and pelleted in a clinical centrifuge. The pellet was re-suspended in 400 μL complete media and transferred to an electroporation cuvette with a 0.4 cm gap between the electrodes. Supercoiled human FAAH cDNA (1 μg) was added to the cells and mixed. The voltage for the electroporation was set at 0.25 kV, and the capacitance was set at 960 μF. After electroporation, the cells were diluted into complete media (10 mL) and plated onto four 10-cm dishes. Because of the variability in the efficiency of electroporation, four different concentrations of cells were plated. […] The cells were allowed to recover for 24 h before adding the selection media (complete media with 600 μg/mL G418). After 10 d, dishes were analyzed for surviving colonies of cells. Dishes with well-isolated colonies were used. Cells from individual colonies were isolated and tested.
T84 frozen cell pellets or transfected SK-N-MC cells (contents of 1×15 cm culture dishes) were homogenized in 50 mL of FAAH assay buffer (125 mM Tris, 1 mM EDTA, 0.2% Glycerol, 0.02% Triton X-100, 0.4 mM Hepes, pH 9). The assay mixture consisted of 50 μL of the cell homogenate, 10 μL of the test compound, and 40 μL of anandamide [1-^3H-ethanolamine] (^3H-AEA, Perkin-Elmer, 10.3 Ci/mmol), which was added last, for a final tracer concentration of 80 nM. The reaction mixture was incubated at rt for 1 h. During the incubation, 96-well Multiscreen filter plates (catalog number MAFCNOB50; Millipore, Bedford, Mass., USA) were loaded with 25 of activated charcoal (Multiscreen column loader, catalog number MACL09625, Millipore) and washed once with 100 μL of MeOH. Also during the incubation, 96-well DYNEX MicroLite plates (catalog number NL510410) were loaded with 100 μL of MicroScint40 (catalog number 6013641, Packard Bioscience, Meriden, Conn., USA). After the 1 h incubation, 60 μL of the reaction mixture were transferred to the charcoal plates, which were then assembled on top of the DYNEX plates using Centrifuge Alignment Frames (catalog number MACF09604, Millipore). The unbound labeled ethanolamine was centrifuged through to the bottom plate (5 min at 2000 rpm), which was preloaded with the scintillant, as described above. The plates were sealed and left at rt for 1 h before counting on a Hewlett Packard TopCount.
Compounds were tested in free base or trifluoroacetic acid salt forms.

Point of comparison: O=C(Nc1cccnc1)N1CCC2(CCCN2Cc2cccc(Oc3ccc(Cl)cc3)c2)C1 (stereo not drawn) [Example 7, 1-[3-(4-Chloro-phenoxy)-benzyl]-1,7-diaza-spiro[4.4]nonane-7-carboxylic acid pyridin-3-ylamide], IC50 9 µM. Against it:
- O=C(Nc1cccnc1)N1CC2(CCN(Cc3cccc(Oc4ccc(F)c(F)c4)c3)CC2)C1 [Example 124, 7-[3-(3,4-Difluoro-phenoxy)-benzyl]-2,7-diaza-spiro[3.5]nonane-2-carboxylic acid pyridin-3-ylamide] — 30-fold lower, 0.3 µM
- O=C(Nc1cccnc1)N1CC2(CCN(Cc3cccc(Oc4ccc(OCC(F)(F)F)cc4)c3)CC2)C1 [Example 128, 7-{3-[4-(2,2,2-Trifluoro-ethoxy)-phenoxy]-benzyl}-2,7-diaza-spiro[3.5]nonane-2-carboxylic acid pyridin-3-ylamide] — within 1.5-fold, 8 µM
- O=C(Nc1cnc2[nH]ccc2c1)N1CC2(CCN(Cc3ccc4c(c3)OC(F)(F)O4)CC2)C1 [Example 89, 7-(2,2-Difluoro-benzo[1,3]dioxol-5-ylmethyl)-2,7-diaza-spiro[3.5]nonane-2-carboxylic acid (1H-pyrrolo[2,3-b]pyridin-5-yl)-amide] — 18-fold lower, 0.5 µM

What follows are molecules tested against T2, Rat FAAH (Rattus norvegicus, UniProt P97612) (assay: Assay Method 2: rat FAAH assay (3H-anandamide hydrolysis in cell homogenate)). Details: read-out: Assay 2 IC50.
T2 construct: expressed in transfected cells; host or cells: SK-N-MC cells stably transfected with rat FAAH cDNA (G418 selection)
T2 sequence (P97612 1-579): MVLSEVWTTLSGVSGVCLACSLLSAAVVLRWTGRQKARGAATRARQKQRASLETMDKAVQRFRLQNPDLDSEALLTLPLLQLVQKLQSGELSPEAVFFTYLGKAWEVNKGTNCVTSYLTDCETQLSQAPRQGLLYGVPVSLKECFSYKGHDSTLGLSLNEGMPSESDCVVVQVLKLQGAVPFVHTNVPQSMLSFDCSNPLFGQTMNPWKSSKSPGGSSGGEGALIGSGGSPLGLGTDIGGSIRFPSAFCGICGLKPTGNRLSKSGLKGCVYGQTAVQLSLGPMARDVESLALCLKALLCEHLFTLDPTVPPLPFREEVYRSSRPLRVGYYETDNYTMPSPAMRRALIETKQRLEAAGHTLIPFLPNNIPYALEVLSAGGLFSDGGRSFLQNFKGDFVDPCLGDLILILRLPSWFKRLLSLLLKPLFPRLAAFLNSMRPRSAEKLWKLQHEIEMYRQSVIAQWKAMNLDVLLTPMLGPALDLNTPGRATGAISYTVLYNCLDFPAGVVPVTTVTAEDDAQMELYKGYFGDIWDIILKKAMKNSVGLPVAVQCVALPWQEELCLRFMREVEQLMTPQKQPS
Assay type: biochemical
Protocol: A. Transfection of Cells with Rat FAAH A 10-cm tissue culture dish with a confluent monolayer of SK-N-MC cells was split 2 days (d) prior to transfection. Using sterile technique, the media was removed and the cells were detached from the dish by the addition of trypsin. One fifth of the cells were then placed onto a new 10-cm dish. Cells were grown in a 37° C. incubator with 5% CO2 in Minimal Essential Media Eagle with 10% Fetal Bovine Serum. After 2 d, cells were approximately 80% confluent. These cells were removed from the dish with trypsin and pelleted in a clinical centrifuge. The pellet was re-suspended in 400 μL complete media and transferred to an electroporation cuvette with a 0.4 cm gap between the electrodes. Supercoiled rat FAAH cDNA (1 μg) was added to the cells and mixed. The voltage for the electroporation was set at 0.25 kV, and the capacitance was set at 960 μF. After electroporation, the cells were diluted into complete media (10 mL) and plated onto four 10-cm dishes. Because of the variability in the efficiency of electroporation, four different concentrations of cells were plated. The ratios used were 1:20, 1:10, and 1:5, with the remainder of the cells being added to the fourth dish. The cells were allowed to recover for 24 h before adding the selection media (complete media with 600 μg/mL G418). After 10 d, dishes were analyzed for surviving colonies of cells. Dishes with well-isolated colonies were used. Cells from individual colonies were isolated and tested. […] B. FAAH Assay T84 frozen cell pellets or transfected SK-N-MC cells (contents of 1×15 cm culture dishes) were homogenized in 50 mL of FAAH assay buffer (125 mM Tris, 1 mM EDTA, 0.2% Glycerol, 0.02% Triton X-100, 0.4 mM Hepes, pH 9). […] The reaction mixture was incubated at rt for 1 h. During the incubation, 96-well Multiscreen filter plates (catalog number MAFCNOB50; Millipore, Bedford, Mass., USA) were loaded with 25 of activated charcoal (Multiscreen column loader, catalog number MACL09625, Millipore) and washed once with 100 μL of MeOH. Also during the incubation, 96-well DYNEX MicroLite plates (catalog number NL510410) were loaded with 100 μL of MicroScint40 (catalog number 6013641, Packard Bioscience, Meriden, Conn., USA). After the 1 h incubation, 60 μL of the reaction mixture were transferred to the charcoal plates, which were then assembled on top of the DYNEX plates using Centrifuge Alignment Frames (catalog number MACF09604, Millipore). The unbound labeled ethanolamine was centrifuged through to the bottom plate (5 min at 2000 rpm), which was preloaded with the scintillant, as described above. The plates were sealed and left at rt for 1 h before counting on a Hewlett Packard TopCount. Results for compounds tested in these assays are summarized in Table 1, as an average of results obtained. Compounds were tested in free base or trifluoroacetic acid salt forms. Where activity is shown as greater than (>) a particular value, the value is the solubility limit of the compound in the assay medium or the highest concentration tested in the assay.

Point of comparison: O=C(Nc1cccnc1)N1CCCC2(CN(Cc3cccc(Oc4ccc(Cl)cc4)c3)C2)C1 [Example 26, 2-(3-(4-chlorophenoxy)benzyl)-N-(pyridin-3-yl)-2,6-diazaspiro[3.5]nonane-6-carboxamide], IC50 6 µM. Against it:
- O=C(Nc1cccnc1)N1CC2(CCN(Cc3cccc(Oc4ccc(F)c(F)c4)c3)CC2)C1 [Example 124, 7-[3-(3,4-Difluoro-phenoxy)-benzyl]-2,7-diaza-spiro[3.5]nonane-2-carboxylic acid pyridin-3-ylamide] — 15-fold lower, 0.4 µM
- O=C(Nc1nnn[nH]1)N1CC2(CCN(Cc3cccc(Oc4ccc(Cl)cc4)c3)CC2)C1 [Example 51, 7-[3-(4-Chloro-phenoxy)-benzyl]-2,7-diaza-spiro[3.5]nonane-2-carboxylic acid (1H-tetrazol-5-yl)-amide, trifluoroacetic acid salt] — 30-fold lower, 0.2 µM
- O=C(Nc1cccnc1)N1CC2(CCN(Cc3cccc(Cl)c3)CC2)C1 [Example 99, 7-(3-Chloro-benzyl)-2,7-diaza-spiro[3.5]nonane-2-carboxylic acid pyridin-3-ylamide] — higher, > 10 µM
- O=C(Nc1cnc(-c2ccccc2)nc1)N1CC2(CCN(Cc3cccc(Oc4ccc(Cl)cc4)c3)CC2)C1 [Example 83, 7-(3-(4-chlorophenoxy)benzyl)-N-(2-phenylpyrimidin-5-yl)-2,7-diazaspiro[3.5]nonane-2-carboxamide, trifluoroacetic acid salt] — 300-fold lower, 0.02 µM
- O=C(Nc1cccnc1)N1CC2(CCN(Cc3ccc4c(c3)OC(F)(F)O4)CC2)C1 [Example 87, 7-(2,2-Difluoro-benzo[1,3]-dioxol-5-ylmethyl)-2,7-diaza-spiro[3.5]nonane-2-carboxylic acid pyridin-3-ylamide] — higher, > 10 µM
- O=C(Nc1cccnc1)N1CC2(CCN(Cc3ccccc3Cl)CC2)C1 [Example 98, 7-(2-Chloro-benzyl)-2,7-diaza-spiro[3.5]nonane-2-carboxylic acid pyridin-3-ylamide] — higher, > 10 µM
- O=C(Nc1cccnc1)N1CC2(CCN(Cc3ccc(C(F)(F)F)cc3)CC2)C1 [Example 102, N-(pyridin-3-yl)-7-(4-(trifluoromethyl)benzyl)-2,7-diazaspiro[3.5]nonane-2-carboxamide] — higher, > 10 µM
- O=C(Nc1cccnc1)N1CC2(CCN(Cc3ccc(Cl)c(C(F)(F)F)c3)CC2)C1 [Example 109, 7-(4-chloro-3-(trifluoromethyl)benzyl)-N-(pyridin-3-yl)-2,7-diazaspiro[3.5]nonane-2-carboxamide] — higher, > 10 µM
- O=C(Nc1cnc2ccccc2c1)N1CCCC2(CN(Cc3cccc(Oc4ccc(Cl)cc4)c3)C2)C1 [Example 32, 2-(3-(4-chlorophenoxy)benzyl)-N-(quinolin-3-yl)-2,6-diazaspiro[3.5]nonane-6-carboxamide] — 600-fold lower, 0.01 µM
- O=C(Nc1ccc(-n2cnnc2)nc1)N1CC2(CCN(Cc3cccc(Oc4ccc(Cl)cc4)c3)CC2)C1 [Example 47, 7-[3-(4-Chloro-phenoxy)-benzyl]-2,7-diaza-spiro[3.5]nonane-2-carboxylic acid (6-[1,2,4]triazol-4-yl-pyridin-3-yl)-amide, trifluoroacetic acid salt] — higher, > 10 µM
